Experimental data from patent US20030069307A1, “2-(3,4-Dihydroxyphenyl)ethyl-substituted carbonic acid derivatives and their use” (priority 2001, published 2003).

How the values were obtained:
[1] = Rancimat accelerated autoxidation of lipids by air, squalene; details: antioxidant power AP = IP(with test solution)/IP(control sample), squalene purified on alumina type N, stabilized with 1 ppm α-tocopherol
Protocol: (§1) The activity of the example compounds as antioxidants was compared with that of conventional antioxidants. The test system used was accelerated autoxidation of lipids by air with or without antioxidants, using the Rancimat apparatus (Deutsche Lebensmiftel-Rundschau 1974, vol. 70, pp. 57 to 65) (Rancimat is a registered trademark of Metrohm AG, Herisau, Switzerland).
(§2) The example compounds, vitamin C, α-tocopherol and 3,5-ditert-butyl-4-hydroxytoluene were dissolved in methanol or acetone and 100 μl of the respective test solution were added to a prepared oil sample of 3 g. Only solvent was added to a control sample. A constant dry air stream (20 I/h) was blown through the heated oil sample containing the test solution and the volatile oxidation products (principally short-chain fatty acids, such as formic acid or acetic acid) were collected in a receiver containing water. The conductivity of this aqueous solution was measured continuously and documented. The oxidation of (unsaturated) fats proceeds here only very slowly for a period, and then suddenly increases. The time until the increase is termed the induction period (IP).
(§3) From the equation below, the antioxidant power (AP) was obtained:
(§4) AP=IP(with test solution)/IP(control sample).
(§5) The higher the AP, the higher is the antioxidant activity.
The results for the experiment at 80° C. in squalene which was purified on alumina type N and stabilized with 1 ppm of α-tocopherol are shown in Table 7: […]

[2] = Rancimat accelerated autoxidation of lipids by air, soya bean oil; details: antioxidant power AP = IP(with test solution)/IP(control sample), soya bean oil purified on alumina type N, 0.05% test substance, higher = better
Protocol: as §1, §2, §3, §4, §5

[3] = DPPH test for the elimination of free radicals (activity as free-radical scavenger); details: DPPH 100 μmol/l in methanol, absorption at 515 nm; smaller = better
Protocol: The activity of the exemplary compounds as free-radical scavengers was compared with conventional free-radical scavengers. For this, the DPPH (1,1-diphenyl-2-picryl-hydrazyl) test for the elimination of free-radicals was employed (Lebensm.-Wiss. u. Technol., 1995, vol. 28, pp. 25 to 30).
DPPH was dissolved in methanol to give a concentration of 100 μmol/l. A series of dilutions of the example compounds, vitamin C, α-tocopherol and 3,5-ditert-butyl-4-hydroxytoluene were prepared in methanol. Methanol served as control. 2500 μl of the DPPH solution were mixed with 500 μl of each test solution and the decrease in absorption at 515 nm was read off until the decrease was less than 2% per hour. The activity of the test substances as free-radical scavengers was calculated from the following equation:
Activity as free-radical scavenger (%)=100−(absorption of the test compounds)/absorption of the control)×100.
From activity as free-radical scavenger (%) in a number of dilutions of test compounds, for each test compound the effective relative concentration EC50 (based on the initial concentration of DPPH, EC=c (test compound)/c(DPPH)) of a test compound was calculated at which the free-radical DPPH was eliminated by 50%. The smaller the EC50 values, the better is the free-radical scavenging action.

| SMILES | EC50 (effective relative concentration, c(test compound)/c(DPPH), at which the free-radical DPPH was eliminated by 50%) [3] | AP in squalene at 80° C. containing 0.005% test substance [1] | AP in soya bean oil at 100° C. containing 0.05% of test substance [2] |
| --- | --- | --- | --- |
| CC(C)[C@@H]1CC[C@@H](C)C[C@H]1OC(=O)NCCc1ccc(O)c(O)c1 [Example 2, N-[2-(3,4-Dihydroxyphenyl)ethyl]-O-[(1R,3R,4S)-menthyl]urethane] | 0.35 mol/mol | 25 | 7.1 |
| CCCCCCOC(=O)NCCc1ccc(O)c(O)c1 [Example 3, N-[2-(3,4-Dihydroxyphenyl)ethyl]-O-hexylurethane] | 0.24 mol/mol | 46 | 9.8 |
| Cc1cc(C(C)(C)C)c(O)c(C(C)(C)C)c1 [3,5-Ditert-butyl-4-hydroxytoluene, reference compound] | 0.24 mol/mol | 38 | 4.8 |
| CCCCCCNC(=S)NCCc1ccc(O)c(O)c1 [Example 5, N-[2-(3,4-Dihydroxyphenyl)ethyl]-N′-hexylthiourea] |  | 59 | 14.4 |
| CCCCC(CC)COC(=O)NCCc1ccc(O)c(O)c1 (centres unmarked) [Example 4, N-[2-(3,4-Dihydroxyphenyl)ethyl]-O-(2-ethylhexyl)urethane] | 0.25 mol/mol | 50 | 7.6 |
| COC(=O)NCCc1ccc(O)c(O)c1 [Example 1, N-[2-(3,4-Dihydroxyphenyl)ethyl]-O-methylurethane] | 0.27 mol/mol | 76 | 15.3 |

The next lines start with results.

| EC50 (effective relative concentration, c(test compound)/c(DPPH), at which the free-radical DPPH was eliminated by 50%) [3] | SMILES | AP in squalene at 80° C. containing 0.005% test substance [1] | AP in soya bean oil at 100° C. containing 0.05% of test substance [2] |
| --- | --- | --- | --- |
| 0.20 mol/mol | CCCCCCNC(=O)NCCc1ccc(O)c(O)c1 [Example 6, N-[2-(3,4-Dihydroxyphenyl)ethyl]-N′-hexylurea] | 60 | 26 |
| 0.27 mol/mol | O=C1O[C@H]([C@@H](O)CO)C(O)=C1O [Vitamin C, reference compound] | 0.7 | 1.2 |
| 0.25 mol/mol | Cc1c(C)c2c(c(C)c1O)CC[C@@](C)(CCC[C@H](C)CCC[C@H](C)CCCC(C)C)O2 [α-Tocopherol, reference compound] | 39 | 5.1 |
